Experimental data as given in publication PMC11843613, “Further Optimization of the mGlu1 PAM VU6024578/BI02982816: Discovery and Characterization of VU6033685” (ACS Chemical Neuroscience, 2025).

What was measured:
Assay type in all cases: in vitro ADME
[1] = Plasma protein binding, equilibrium dialysis (human); conditions: pH 7.4, human plasma, read-out: fu plasma (h)
Description: page 13: at half log concentrations in DMSO were further diluted in assay buffer. The compounds or DMSO vehicle were added to cells and incubated for 2.5 min and an EC20 concentration of glutamate was added and incubated for 1 min. An ECmax concentration of glutamate was also added to cells that were incubated with DMSO vehicle to accurately calculate the EC20 calcium response. Data were normalized by subtracting the basal florescent peak before EC20 agonist addition from the maximal peak elicited by EC20 agonist and PAMs. Using GraphPad Prism 5.0, the concentration response curves were generated and the potencies of the mGlu1 PAMs were determined. DMPK Methods Plasma protein binding: The protein binding of each compound was determined in plasma via equilibrium dialysis employing RED Plates (ThermoFisher Scientific, Rochester, NY). Plasma was added to the 96 well plate containing test compound and mixed thoroughly for a final concentration of 5 µM. Subsequently, an aliquot of the plasma-compound mixture was transferred to the cis chamber (red) of the RED plate, with an phosphate buffer (25 mM, pH 7.4) in the trans chamber. The RED plate was sealed and incubated for 4 hours at 37°C with shaking. At completion, aliquots from each chamber were diluted 1:1 with either plasma (cis) or buffer (trans) and transferred to a new 96 well plate, at which time ice-cold acetonitrile containing internal standard (50 ng/mL carbamazepine) (2 volumes) was added to extract the matrices. The plate was centrifuged (3000 rcf, 10 min) and supernatants transferred and diluted 1:1 (supernatant: water) into a new 96 well plate, which was then sealed in preparation for LC/MS/MS analysis. Each compound was assayed in triplicate within the same 96-well plate. Fraction unbound was determined using the following equation F = Concbuffer u Conc plasma Intrinsic clearance: Human or rat hepatic microsomes (0.5 mg/mL) and 1 µM test compound were incubated in 100 mM potassium phosphate pH 7.4 buffer with 3 mM MgCl2 at 37°C with constant shaking. After a 5 min preincubation, the reaction was initiated by addition of NADPH (1 mM). At selected time intervals (0, 3, 7, 15, 25, and 45 min), aliquots were taken and subsequently placed into a 96-well plate containing cold acetonitrile with internal standard (50 ng/mL carbamazepine). Plates were then centrifuged at 3000 rcf (4° C) for 10 min, and the supernatant was transferred to a separate 96-well plate and diluted 1:1 with water for LC/MS/MS analysis. The in vitro half-life (T 1/2, min, Eq. 1), intrinsic clearance (CLint, mL/min/kg, Eq. 2) and subsequent predicted hepatic clearance (CLhep, mL/min/kg, Eq. 3) was determined S13

CYP450 3A4 = molecular target: T1, CYP450 3A4 (Homo sapiens, UniProt P08684); test: Inhibition of cytochrome P450 enzymes in human liver microsomes, 3A4
T1 construct: 0.1 mg/mL human liver microsomes (HLM); from tissue; host or cells: human liver microsomes
T1 sequence (P08684 whole entry): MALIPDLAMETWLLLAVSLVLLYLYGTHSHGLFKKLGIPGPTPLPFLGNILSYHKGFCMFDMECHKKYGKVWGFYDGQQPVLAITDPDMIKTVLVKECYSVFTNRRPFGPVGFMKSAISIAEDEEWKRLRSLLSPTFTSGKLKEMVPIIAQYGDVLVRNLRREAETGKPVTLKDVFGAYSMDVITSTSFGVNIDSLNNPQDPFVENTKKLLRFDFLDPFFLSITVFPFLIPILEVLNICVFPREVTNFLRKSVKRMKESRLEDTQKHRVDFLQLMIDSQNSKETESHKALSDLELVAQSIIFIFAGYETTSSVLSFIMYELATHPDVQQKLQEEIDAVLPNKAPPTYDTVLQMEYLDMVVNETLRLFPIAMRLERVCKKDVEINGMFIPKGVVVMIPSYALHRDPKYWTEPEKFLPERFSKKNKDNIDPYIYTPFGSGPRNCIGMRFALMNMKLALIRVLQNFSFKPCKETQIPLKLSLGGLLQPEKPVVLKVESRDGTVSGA
Description: (§1) Inhibition of Cytochrome P450 Enzymes: A cocktail of substrates for cytochrome P450 enzymes (1A2: Phenacetin, 10 µM; 2C9: Diclofenac, 5 µM; 2D6: Dextromethorphan, 5 µM; 3A4:
(§2) Midazolam, 2 µM) were mixed for cocktail analysis. For P450 2C19, the substrate stock (Mephenytoin, 40 µM )and substrate mix were prepared separately for discrete analysis. The […]
(§3) positive control for pan-P450 inhibition (miconazole) was included alongside each test compound […]
(§4) A reaction mixture of 100 mM Kpi, pH 7.4, 0.1 mg/mL human liver microsomes (HLM) and Substrate Mix is prepared and aliquoted into a 96-deepwell block. Test compound and positive control (in duplicate) were then added such that the final concentration of test compound ranged from 0.1 – 30 µM. The plate was vortexed briefly and then pre-incubated at 37 °C while shaking for 15 minutes. The reaction was initiated with the addition of NADPH (1 mM final concentration). The incubation continued for 8 min and the reaction quenched by 2x volume of cold acetonitrile containing internal standard (50 nM carbamazepine). The plate was centrifuged for 10 minutes (4000 rcf, 4°C) and the resulting supernatant diluted 1:1 with water for LC/MS/MS analysis. A 12 point standard curve of substrate metabolites over the range of 0.98 nM to 2000 […]
(§5) Samples were analyzed via electrospray ionization (ESI) on an AB Sciex API-4000 (Foster City, CA) triple-quadrupole instrument that was coupled with Shimadzu LC-10AD pumps (Columbia, MD) and a Leap Technologies CTC PAL auto-sampler (Carrboro, NC). Analytes were separated by gradient elution using a Fortis C18 3.0 x 50 mm, 3 µm column (Fortis Technologies Ltd, Cheshire, UK) thermostated at 40°C. HPLC mobile phase A was 0.1% formic acid in water (pH unadjusted), mobile phase B was 0.1% formic acid in acetonitrile (pH unadjusted). The gradient […]
(§6) 90% B for 0.1 min and returned to 10% B in 0.1 min followed by a re-equilibration (0.9 min). The total run time was 2.5 min and the HPLC flow rate was 0.5 mL/min. The source temperature was set at 500°C and mass spectral analyses were performed using multiple reaction monitoring (MRM), with transitions specific for each compound utilizing a Turbo-Ionspray® source in positive ionization mode (5.0 kV spray voltage).
(§7) The IC50 values for each compound were obtained for the individual CYP enzymes by quantitating the inhibition of metabolite formation for each probe substrate. A 0 µM compound condition (or control) was set to 100% enzymatic activity and the effect of increasing test compound concentrations on enzymatic activity could then be calculated from the % of control activity.
(§8) Curves were fitted using XLfit 5.2.2 (four-parameter logistic model, equation 201) to determine the concentration that produces half-maximal inhibition (IC50).

CYP450 1A2 = molecular target: T2, CYP450 1A2 (Homo sapiens, UniProt P05177); test: Inhibition of cytochrome P450 enzymes in human liver microsomes, 1A2
T2 construct: 0.1 mg/mL human liver microsomes (HLM); from tissue; host or cells: human liver microsomes
T2 sequence (P05177 1-516): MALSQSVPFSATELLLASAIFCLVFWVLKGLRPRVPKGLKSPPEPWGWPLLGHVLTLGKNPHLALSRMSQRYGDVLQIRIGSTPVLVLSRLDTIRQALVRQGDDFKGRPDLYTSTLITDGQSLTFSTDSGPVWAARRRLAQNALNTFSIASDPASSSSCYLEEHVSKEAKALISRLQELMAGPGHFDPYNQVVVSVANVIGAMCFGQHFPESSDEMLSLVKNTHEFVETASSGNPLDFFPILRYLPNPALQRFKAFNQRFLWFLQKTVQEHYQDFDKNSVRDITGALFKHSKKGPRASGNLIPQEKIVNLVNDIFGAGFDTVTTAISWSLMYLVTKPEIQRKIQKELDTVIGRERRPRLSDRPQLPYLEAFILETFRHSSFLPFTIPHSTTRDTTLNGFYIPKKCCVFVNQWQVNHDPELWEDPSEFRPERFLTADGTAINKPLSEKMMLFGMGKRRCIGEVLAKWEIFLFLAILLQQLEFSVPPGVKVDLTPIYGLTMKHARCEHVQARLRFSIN
Description: as §1, §2, §3, §4, §5, §6, §7, §8

CYP450 2C9 = molecular target: T3, CYP450 2C9 (Homo sapiens, UniProt P11712); test: Inhibition of cytochrome P450 enzymes in human liver microsomes, 2C9
T3 construct: 0.1 mg/mL human liver microsomes (HLM); from tissue; host or cells: human liver microsomes
T3 sequence (P11712 whole entry): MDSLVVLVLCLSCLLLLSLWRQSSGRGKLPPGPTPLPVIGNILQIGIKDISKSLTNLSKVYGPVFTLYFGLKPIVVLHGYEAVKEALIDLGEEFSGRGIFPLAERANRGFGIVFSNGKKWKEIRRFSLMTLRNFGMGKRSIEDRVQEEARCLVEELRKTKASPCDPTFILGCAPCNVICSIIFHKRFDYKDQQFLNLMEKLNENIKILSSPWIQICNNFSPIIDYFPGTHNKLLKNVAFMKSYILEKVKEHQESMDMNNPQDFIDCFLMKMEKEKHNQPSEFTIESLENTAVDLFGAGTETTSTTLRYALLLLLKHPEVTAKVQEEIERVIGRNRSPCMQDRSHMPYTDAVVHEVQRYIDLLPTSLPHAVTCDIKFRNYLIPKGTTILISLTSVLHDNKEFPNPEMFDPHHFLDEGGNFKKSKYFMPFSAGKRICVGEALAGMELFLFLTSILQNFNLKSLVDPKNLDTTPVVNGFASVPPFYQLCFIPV
Description: as §1, §2, §3, §4, §5, §6, §7, §8

SMILES	fraction unbound at 4 h, 5 µM [1]	IC50 (CYP450 3A4) [µM]	IC50 (CYP450 1A2) [µM]	IC50 (CYP450 2C9) [µM]
Cn1cc(-c2cc(CNC(=O)c3cc(-c4ccco4)ccc3Cl)n(C)n2)cn1 [compound 4]	0.063	> 30	14.7	> 30
Cn1nc(-c2ccnn2C)cc1CNC(=O)c1cc(-n2cccn2)ccc1Cl [compound 5]	0.143	> 30	> 30	> 30
Cc1nc2ccccc2cc1CNC(=O)c1cc(-n2cccn2)ccc1Cl [compound 6]	0.037	8.8	15.9	6.4
Cc1nc2c(F)cccc2cc1CNC(=O)c1cc(-n2cccn2)ccc1Cl [compound 7]	0.053	9	11.2	5.9
Cc1nc(C2CC2)ccc1CNC(=O)c1cc(-n2cccn2)ccc1Cl [compound 8]	0.063	23.8	26	22.3
